Values after ≈ are worked out from the molar mass of the structure shown.
Columns and labels:
Type in all cases: cell-based
[1] = tested on: Staphylococcus aureus MRSAIID 1677 (methicillin-resistant staphylococcus aureus; MRSA); test: Antimicrobial test, minimum inhibitory concentration (MIC), MRSA; settings: 36±1° C., 24 hours
Procedure: Antimicrobial/Antifungal Test
Measurement of the Minimum Inhibitory Concentration (MIC) of a Test Substance
The minimum inhibitory concentration (MIC) of test substances (Compound 3, Compound 7) on a microorganism was measured.
1) Test Microbe (a) Staphylococcus aureus MRSAIID 1677 (methicillin-resistant staphylococcus aureus; MRSA) (b) Trichophyton mentagrophytes NBRC5466 (trichophyton)
2) Preparation of Microbe Solution for Inoculation
Test microbe (a): A strain cryopreserved was smeared on TSA medium and cultured at 36±1° C. for 24 hours. Grown colonies were scraped out and suspended in a test organism preparation solution, filtered with absorbent cotton. The number of cells was controlled to be about 10^6-7 CFU/mL. The test microbe solution prepared was serially diluted by 10-fold and cultured at 36±1° C. for 48 hours and the microbe cells were counted.
3) Serial Dilution of Test Substance
Two-fold serial dilutions of a test substance were prepared in the following procedure. To a test substance (1 mg), a medium (5 mL) for measuring the sensitivity of each microbe strains was added to obtain a stock solution of 200 μg/mL. […]
A test microbe solution (5 μL) was added dropwise to individual wells of the microplate. […] After culture, whether the microbe proliferated or not was determined by the naked eye. […]

[2] = tested on: Salmonella typhimurium TA98 strain and TA100 strain; test: Growth inhibitory action and bactericidal action on salmonella (preincubation method, with and without S9 mix); settings: TA98 and TA100, presence or absence of S9 mix; for Bactericidal action: lowest concentration at which all bacterial cells were killed; for Growth inhibition: lowest concentration at which growth was inhibited
Procedure: Growth inhibitory action and bactericidal action on salmonella
1) Preparation of Test-Substance Solution
Test substances (compounds listed in Table 1) each were prepared by dissolving it in DMSO when used. Preparation was made in such a manner that the highest dose became 5000 μg/plate and the dose lower than this was prepared by a dilution method. In the table, reference numerals of individual compounds correspond to the numbers of the individual compounds synthesized in the above Examples (the same applies to the following Tables).
Salmonella typhimurium TA98 strain and TA100 strain were used.
These were supplied by Japan Bioassay Research Center, proliferated and examined for genetic properties and other properties in accordance with customary methods, in advance. After these strains were confirmed to have these properties, they are cryopreserved (−80° C.) with a DMSO-added medium; and thawed for use in each test.
3) A cryopreserved strain was thawed and inoculated in a 2.5% aqueous nutrient broth (OXOID No. 2) solution and cultured while shaking at 37° C. for 7 hours to obtain a cell suspension, which was subjected to tests.
A minimum glucose agar plate medium (Vital Media AMT-S, manufactured by Kyokuto Pharmaceutical Industrial Co., Ltd.) was used.
The top agar was prepared when used by blending an aqueous solution of 0.5 mM L-histidine and 0.5 mM D-(+)-biotin with an aqueous solution prepared by adding Bacto Agar (Difco) (0.6%) and sodium chloride (0.5%).
S9 was purchased from Kikkoman; whereas a cofactor was previously prepared in accordance with a method known in the art. They were mixed in a customary method to prepare S9 mix.
Using a test system containing S9 mix and a test system containing no S9 mix, a test was carried out in accordance with a preincubation method. As the dose selection, the highest dose was specified as […], which was then serially diluted in a common ratio of 2 to prepare a total of 15 doses to be used in the test.
To a sterile test tube, a test solution (0.1 mL) and 0.1 M Na-phosphate buffer or S9 mix (0.5 mL) and a cell suspension (0.1 mL) were sequentially dispensed. Pre-incubation was carried out at 37° C. for 20 minutes while shaking. After completion of the pre-incubation, top agar (2 mL) kept warm at 45° C. was added, mixed and placed on a minimum glucose agar plate medium. After solidification, the plate was turned upside down and cultured at 37° C. for 48 hours.
After completion of the culture, the state of microbial growth was observed by a stereomicroscope. After a precipitate on the plate was observed, revertant colonies were counted by the naked eye or a colony counter.
7) Criteria for Determination
Growth of both TA98 and TA100 strains was examined in the presence or absence of S9 mix. Among the resultant concentrations at which growth was inhibited, the lowest concentration was specified as the growth inhibitory concentration. Similarly, the bactericidal concentration was specified as the lowest concentration at which all bacterial cells were killed.

[3] = tested on: Streptococcus mutans NBRC13955; test: Antimicrobial test on oral bacteria, bactericidal effect test; settings: for bactericidal action on Streptococcus mutans cells: one minute
Procedure: Antimicrobial Test on Oral Bacteria
1. Antimicrobial Action on Streptococcus mutans
The antimicrobial effect of two types of test substances (Compound 3 and Compound 7) on Streptococcus mutans was evaluated.
1) Preparation of Test Microbe
A microbe strain (Streptococcus mutans NBRC13955) cryopreserved was cultured in TSA medium at 36±1° C. for 18 to 24 hours. The cultured microbial cells were transferred to a fresh TSA medium and cultured at 36±1° C. for 18 to 24 hours. The grown colonies were scraped out and suspended in sterile ion-exchange water to prepare a solution having about 10^7 CFU/mL, which was used as a test microbe solution.
2) Preparation of Test Solution […]
3) Bactericidal Effect Test
From individual test solutions previously kept at 25±2° C., an aliquot (10 mL) was dispensed to centrifuge tubes of 50 mL in volume. To each of the centrifuge tubes, the test microbe solution (0.1 mL) was inoculated, mixed and allowed to react. After a predetermined reaction time, the resultant test solution (1 mL) was taken out. To this, 9 mL of a deactivator (SCDLP medium (manufactured by Eiken Chemical Co., Ltd.), which was confirmed as effective deactivator), was added to inactivate the bactericidal component of the test solution. The number of microbial cells in the resultant sample solution was determined. The solution obtained by carrying out the same procedure except that a sterile physiological saline was used in place of the test solution, was used as a control.
4) Determination of the Number of Microbial Cells
Using the sample solution as a stock solution, serial dilution was performed with a sterile physiological saline to obtain 10-fold serial dilutions. 1 mL of the sample solution or each of the dilutions was aseptically transferred to a petri dish, mixed with TSA medium (20 mL), solidified and cultured at 36±2° C. for 48 hours. After the culture, colonies grown on the medium were counted to obtain the number of test microbe cells per test solution (1 mL) (lower limit of quantification: 10 CFU/test solution (1 mL)).

Structure (SMILES)	MIC [1] [µg/mL]	Bactericidal action [2] [μg/plate]	Growth inhibition [2] [μg/plate]	number of test microbe cells ([3]; 0.001 w/v %, working time 1 min)	number of test microbe cells ([3]; 0.001 w/v %, working time 5 min)	bactericidal action on Streptococcus mutans cells ([3]; 0.005 w/v %)	number of test microbe cells ([3]; 0.005 w/v %, working time 1 min)	number of test microbe cells ([3]; 0.005 w/v %, working time 5 min)	number of the cells reduced (fraction) ([3]; 0.01 w/v %, 5 minutes)	number of test microbe cells ([3]; 0.01 w/v %, working time 1 min)	number of test microbe cells ([3]; 0.01 w/v %, working time 5 min)	bactericidal action on Streptococcus mutans cells ([3]; 0.05 w/v %)	number of test microbe cells ([3]; 0.05 w/v %, working time 1 min)	number of test microbe cells ([3]; 0.05 w/v %, working time 5 min)
O=C(Oc1ccc(S(F)(F)(F)(F)F)cc1)c1cc(O)c(O)c(O)c1 [Compound 7, 4-(3,4,5-trihydroxybenzoyloxy)pentafluorosulfanylbenzene]	0.8 (≈ 2.15 µM)	156	19.5	460,000 CFU/test solution (1 mL)	280,000 CFU/test solution (1 mL)	almost completely killed	<10 CFU/test solution (1 mL)	<10 CFU/test solution (1 mL)						
O=C(Nc1ccc(S(F)(F)(F)(F)F)cc1)c1cc(O)c(O)c(O)c1 [Compound 3, 4-(3,4,5-trihydroxybenzoylamino)pentafluorosulfanylbenzene]	6.3 (≈ 17 µM)	625	19.5						1/10	380,000 CFU/test solution (1 mL)	34,000 CFU/test solution (1 mL)	almost completely killed	<10 CFU/test solution (1 mL)	<10 CFU/test solution (1 mL)
